From publication PMC10937676, “Targeting the NTSR2/TrkB oncogenic pathway in chronic lymphocytic leukemia” (Scientific Reports, 2024)

Experiments:
SRC = assay: Immunoblot, relative phosphorylation level of SRC in CLL-B cells; type: cell-based, human; conditions: CLL-B cells from 10 patients, overnight, 10 µM
Description: (§1) Figure 5 The peptide inhibits kinase phosphorylation. CLL-B cells from 10 patients were incubated overnight, with or without 10 µM of TAT-Pep. Whole cell lysates were then prepared, and 10 µg of proteins were immunoblotted to assess the following parameters. (A) Relative phosphorylation level of SRC. (B) Relative phosphorylation level of AKT. (C) Relative phosphorylation level of LYN. (D) Relative phosphorylation level of BTK. (E) Relative phosphorylation level of all tyrosine-phosphorylated proteins.
(§2) Whole cell lysate proteins were extracted using RIPA buffer (Sigma-Aldrich) and sonication (VibraCell™). Plasma membrane proteins were recovered by using the Plasma Membrane Protein Extraction Kit (Abcam) according to the manufacturer’s instructions. A list of the antibodies used for immunoblotting is available in Supplementary Table 2. Bands were quantitatively assessed by densitometry using Fiji software. To evaluate the level of interaction of NTSR2 and TRKB we normalized the density of the TRKB bands by the density of the NTSR2 bands to obtain the relative amount of TRKB co-precipitated through NTSR2.

LYN = assay: Immunoblot, relative phosphorylation level of LYN in CLL-B cells; type: cell-based, human; conditions: CLL-B cells from 10 patients, overnight, 10 µM
Description: as §1, §2

[1] = test system: Bruton Tyrosine Kinase (BTK); assay: Immunoblot, relative phosphorylation level of BTK in CLL-B cells; type: cell-based, human; conditions: CLL-B cells from 10 patients, overnight, 10 µM
Description: as §1, §2

[2] = test system: all tyrosine-phosphorylated proteins; assay: Immunoblot, relative phosphorylation level of all tyrosine-phosphorylated proteins in CLL-B cells; type: cell-based, human; conditions: CLL-B cells from 10 patients, overnight, 10 µM
Description: as §1, §2

BCL-XL = assay: Immunoblot, relative level of anti-apoptotic protein BCL-XL in CLL-B cells; type: cell-based, human; conditions: CLL-B cells from 10 patients, overnight, 10 µM
Excerpt: Concerning anti-apoptotic protein expression, a decrease in anti-apoptotic proteins BCL-2; BCL-XL and MCL-1 was observed after TAT-Pep treatment of CLL-B cells, possibly as a consequence of the SRC kinase inactivation (Fig. 6A–C). To unveil whether the regulation mechanism behind the observed modifications was transcriptional or post-transcriptional, we evaluated the mRNA levels of all three anti-apoptotic proteins following peptide treatment. […] To further underline that the induction of cell death following TAT-Pep treatment involved apoptosis regulation pathways, we used B cells from six CLL patients and stained them with Annexin V in both TAT-Pep treated and untreated conditions. […]
Figure 6 The peptide lowers anti-apoptotic proteins levels. […] CLL-B cells from 12 patients were incubated overnight, with or without 10 µM of TAT-Pep, subsequently RNA was extracted from cell lysates and mRNA levels of BCL-2 (D); BCL-XL (E) and MCL-1 (F) were evaluated using RTqPCR; 18S was used as a housekeeping gene. (G) Increased concentrations (0 to 30 µM) of TAT-Pep were incubated with 20,000 CLL-B, and the number of Annexin V-positive cells was measured using the Incucyte live-cell imaging device. Fluorescence was monitored for 48 h. […] The ‘Green Object Count/Phase Object Count’ ratio was determined using the Incucyte analysis software to obtain the percentage of apoptotic cells. […]

NTSR2/TRKB interaction = NTSR2/TRKB interaction (Homo sapiens, UniProt Q16620); assay: Proximity ligation assay (PLA) for NTSR2 and TRKB in CLL-B cells; type: cell-based; parameters: endogenous in cells; host or cells: primary CLL-B cells from three CLL patients; conditions: CLL-B cells from three CLL patients, 10 µM overnight; compared with TAT alone or untreated; spots counted in 50 cells
Description: Nuclei were stained with DAPI (blue). […] (C) Representative immunoblot of 3 independent experiments. […] Nuclei were stained with DAPI (blue). Magnification × 40.
In a second approach, we investigated the inhibition of the NTSR2/TRKB interaction in CLL-B cells from three CLL patients using PLA on NTSR2 and TRKB. The leukemic B cells were either treated with the TAT-Pep peptide, TAT alone, or left untreated, and then the proximity ligation assay was performed (Fig. 4E,F).
Cells were fixed with methanol at − 20 °C for 10 min and then the Duolink kit (Sigma) was used to perform the PLA according to the manufacturer’s instructions. Before observation, cells were mounted on glass slides with DAPI-containing mounting medium and results were observed by confocal microscopy (LSM880, Zeiss) and analyzed using the Fiji software (ImageJ).

Chain of NTSR2/TRKB interaction (Q16620 32-822): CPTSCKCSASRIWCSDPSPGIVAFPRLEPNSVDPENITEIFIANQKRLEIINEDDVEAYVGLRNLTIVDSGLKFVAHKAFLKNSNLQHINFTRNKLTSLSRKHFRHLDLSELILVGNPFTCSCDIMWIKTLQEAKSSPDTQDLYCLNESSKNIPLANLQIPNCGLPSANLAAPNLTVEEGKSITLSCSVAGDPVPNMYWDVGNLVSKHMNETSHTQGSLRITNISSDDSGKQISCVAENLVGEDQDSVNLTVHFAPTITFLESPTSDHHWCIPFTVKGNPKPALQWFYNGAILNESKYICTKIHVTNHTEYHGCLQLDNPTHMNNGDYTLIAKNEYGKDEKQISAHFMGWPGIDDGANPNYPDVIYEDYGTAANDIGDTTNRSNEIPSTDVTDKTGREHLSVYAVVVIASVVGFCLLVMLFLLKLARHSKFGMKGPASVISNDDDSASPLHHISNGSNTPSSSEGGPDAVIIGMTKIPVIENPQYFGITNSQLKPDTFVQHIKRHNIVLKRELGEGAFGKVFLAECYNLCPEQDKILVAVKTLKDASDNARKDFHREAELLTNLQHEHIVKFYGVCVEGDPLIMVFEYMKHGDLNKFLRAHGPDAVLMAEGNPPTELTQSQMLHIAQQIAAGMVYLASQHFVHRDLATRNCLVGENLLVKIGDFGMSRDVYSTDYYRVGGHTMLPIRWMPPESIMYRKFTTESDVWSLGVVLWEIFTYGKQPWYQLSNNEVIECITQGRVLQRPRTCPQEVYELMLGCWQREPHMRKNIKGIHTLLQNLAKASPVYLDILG

## GRKKRRQRRRPPQNAVSSSFRKLFLEAVSSLCGEHHPMKRLPPKPQSPTLMDTASGFGDPPETRT [TAT-Pep]
SRC
  amount of phosphorylated SRC (in words): significant decrease
LYN
  LYN phosphorylation (in words): significant decrease in phosphorylation
[1]
  BTK phosphorylation (in words): did not affect BTK phosphorylation
[2]
  global level of tyrosine phosphorylation (in words): general decrease in tyrosine phosphorylation
BCL-XL
  level of anti-apoptotic protein BCL-XL (in words): decrease
NTSR2/TRKB interaction
  PLA red fluorescence spots (proximity of NTSR2 and TRKB), in words: dramatically reduced
